Results: PubChem BioAssay AID179 (DTP/NCI, 2004)
Calls of active or inactive are those of the source.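 The calls were made as follows: active = compounds giving half or more protection of infected cells from virus-caused growth loss, again on retest; inactive = the rest.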 Where a SMILES comes first, the peptide text is derived from it. The star is where a group is joined. Cbz = O=C(OCc1ccccc1)*; Boc = CC(C)(C)OC(=O)*; OBn = c1ccc(CO*)cc1; Bn = c1ccc(C*)cc1

System: CEM cells HIV-1 protection, formazan growth assay
Assay: NCI AIDS Antiviral Assay
Details: for IC50: measured here: growth of uninfected CEM cells
Procedure, shortened: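 Soluble formazan readout of cell growth; CEM cells ± HIV-1; 5 drug concs. ≥50% protection → retest; ≥50% again = moderately active; reproducible 100% = confirmed active.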

## COc1cc(OC)c(C#N)c(OC)c1C
  outcome: inactive

## CC(C)(C)[Si](C)(C)OCCOCn1cc(F)c(=O)[nH]c1=O
  EC50: > 200 µM
  IC50: > 200 µM

## OCC(O)COc1ccc(Br)cc1 (stereo unspecified)
  EC50: > 1000 µM
  IC50: 646 µM

## CC1=C(O)c2cn(C)cc2C(=O)C1=O
  outcome: inactive

## O=CN(SSN(C=O)C1CCCCC1)C1CCCCC1
  outcome: inactive

## CCc1cc2c(c3c1CCC3=O)CC1(Cc3ccc(C)cc3C1)C2 (stereo unspecified)
  EC50: > 200 µM
  IC50: 135 µM

## Cc1cc(C)nc(NS(=O)(=O)c2ccc(NC(=O)c3cccc4cc5ccccc5nc34)cc2)n1
  EC50: > 91.2 µM
  IC50: 3.8 µM

## CCOC(=O)C1=CN/C(=C(/C)C(=O)OC)SC1C(=O)OCC (stereo unspecified)
  EC50: > 200 µM
  IC50: 37.2 µM

## C/C=C/c1cc2c(c(=O)o1)C(=O)[C@@H](O)[C@H](C)O2
  EC50: > 200 µM
  IC50: 3.72 µM

## c1ccc(SCN2CCN(CSc3ccccc3)CC2)cc1
  EC50: > 30.2 µM
  IC50: 5.75 µM

## COc1ccc(/C(C#N)=C/c2ccccc2OC)cc1
  EC50: > 200 µM
  IC50: 11.5 µM

## CN1CCN(Cc2nc3cccc4c3c([n+]2[O-])-c2ccccc2-4)CC1
  outcome: inactive

## O=C1N=C2N=C(c3ccc(Cl)cc3)N(c3ccc(Cl)cc3)N2Sc2ccccc21
  EC50: > 11.2 µM
  IC50: > 11.2 µM

## O=C1c2ccccc2-c2cc(S)c([N+](=O)[O-])cc21
  EC50: > 200 µM
  IC50: 145 µM

## N.N.N.N.O=S([O-])[O-].[Co+3].[N-]=[N+]=[N-]
  outcome: inactive

## COc1ccc(C(=O)CC(=O)C(=O)Nc2ccc(C)c(C)c2)cc1
  EC50: > 22.4 µM
  IC50: > 22.4 µM

## CN(C)c1ccc(/C=C2\CCc3ccccc3C2=O)cc1
  EC50: > 9.77 µM
  IC50: 5.5 µM

## CN(C)/N=C(/c1nc2ccc(Cl)cc2[nH]c1=O)C(O)c1ccc(C(O)/C(=N\N(C)C)c2nc3ccc(Cl)cc3[nH]c2=O)cc1 (stereo unspecified)
  EC50: > 389 µM
  IC50: 24 µM

## Cc1ccc(C(=O)Nc2ccc(CP(=O)(O)O)cc2CP(=O)(O)O)cc1N
  EC50: > 174 µM
  IC50: > 174 µM

## COC(=O)C(Cc1ccccc1)N=Cc1c(O)c(O)c(C(C)C)c2cc(C)c(-c3c(C)cc4c(C(C)C)c(O)c(O)c(C=NC(Cc5ccccc5)C(=O)OC)c4c3O)c(O)c12 (stereo unspecified)
  EC50: > 11.7 µM
  IC50: > 11.7 µM

## CC(=O)C(CN(C)C)C(c1ccccc1)c1c(O)c2ccccc2oc1=O (stereo unspecified)
  EC50: > 64.6 µM
  IC50: 11 µM

## CC(C)(C)c1cc(Cc2ccc(S(C)(=O)=O)cc2)c(O)c(C(C)(C)C)c1
  outcome: inactive

## C=C1CC(C)(Cn2cnc3c(N)ncnc32)OC1=O (stereo unspecified)
  EC50: > 200 µM
  IC50: 11.2 µM

## CNc1nncc2[nH]cnc12
  EC50: > 200 µM
  IC50: > 200 µM

## CCCCCCCCCCCCCC1=C(O)C(=O)C(CC2=C(O)C(=O)C(CCCCCCCCCCCCC)=C(O)C2=O)=C(O)C1=O
  EC50: > 17 µM
  IC50: > 17 µM

## O=c1[nH]c(=O)n(C2C=CC(CO)O2)cc1COCC(F)(F)F (stereo unspecified)
  EC50: 3.02 µM
  IC50: 105 µM

## CNC(=O)c1ccccc1[Se][Se]c1ccccc1C(=O)NC
  EC50: 3.55 µM
  IC50: 11 µM

## CC(C)(C)N=C1C(=O)C2(C)CCC1C2(C)C (stereo unspecified)
  EC50: > 20 µM
  IC50: > 20 µM

## CC1OC(OC23C(=O)C[C@](C)(O)CC2(O)C=CC2C3=c3oc(-c4ccc(O)cc4)c4c3=C(C(=O)C(C3CC(OC5CCC(OC6CC(O)C(O)C(C)O6)C(C)O5)C(O)C(C)O3)=C4)C2O)CCC1O (stereo partly specified)
  EC50: > 19.1 µM
  IC50: > 19.1 µM

## CC/C=C/C(=O)CC(O)(C(F)(F)F)C(F)(F)F
  EC50: > 200 µM
  IC50: > 200 µM

## N.N.N.N.O=[N+]([O-])[O-].[Co+3].[N-]=[N+]=[N-].[N-]=[N+]=[N-]
  outcome: inactive

## COC(=O)CNC(=O)C(CC(C)C)NC(=O)C(CC(C)C)NC(=O)C(C)NC(=O)OCc1ccccc1 (stereo unspecified) (Cbz-ALLG-OMe; configuration not given here)
  outcome: inactive

## CC(=O)Nc1ccc(C(=O)NN2C(=O)CSC2c2ccccc2)cc1 (stereo unspecified)
  EC50: > 72.4 µM
  IC50: > 72.4 µM

## CC(C)CC(NC(=O)C(CCC(=O)OCc1ccccc1)NC(=O)OC(C)(C)C)C(=O)NC(COCc1ccccc1)C(=O)NC(Cc1ccccc1)C(=O)O (stereo unspecified) (Boc-E(OBn)LS(Bn)F-OH; configuration not given here)
  EC50: > 200 µM
  IC50: > 200 µM

## O=C(Nc1ccc(F)c(Cl)c1)Nc1cc(Cl)ccc1SSc1ccc(Cl)cc1NC(=O)Nc1ccc(F)c(Cl)c1
  EC50: > 66.1 µM
  IC50: 11.7 µM

## C=C1CC(COc2cc(Cl)nc(N)n2)C1
  EC50: > 200 µM
  IC50: 24.5 µM

## COc1cc(Nc2nc3ccccc3nc2C(=O)O)cc(OC)c1OC
  EC50: > 200 µM
  IC50: 8.91 µM

## O=C1C(Cl)=CC(=C2C=C(Cl)C(=O)C(Cl)=C2)C=C1Cl
  EC50: > 200 µM
  IC50: 42.7 µM

## CCN(CC)CCn1c(C)nc2c1C(=O)c1nc(C)n(CCN(CC)CC)c1C2=O
  EC50: > 200 µM
  IC50: 5.75 µM

## O=C(O)c1ccccc1Sc1ccc(C=C2NC(=S)N(c3ccccc3)C2=O)s1
  EC50: > 200 µM
  IC50: 97.7 µM

## C/C=N\N1C(=O)c2ccccc2C1=O
  EC50: > 191 µM
  IC50: > 191 µM

## O=C1CCCC1C(O)(C(F)(F)F)C(F)(F)F (stereo unspecified)
  EC50: > 200 µM
  IC50: > 200 µM

## COc1c(C)c(-c2c(C)c(OC)c3c(c2OC)OCO3)c(OC)c2c1OCO2
  EC50: > 200 µM
  IC50: 170 µM

## CC(NS(=O)(=O)c1ccc(Cl)cc1)C(=O)O (stereo unspecified)
  outcome: inactive

## O=C(Nc1ccc(C(=O)Nc2ccc(C3=NCCCN3)cc2)cc1)Nc1ccc(C2=NCCCN2)cc1
  EC50: > 200 µM
  IC50: 17 µM
